Reference: patent publication US10759683B2, “Methods for removing mercury contaminant from aqueous solutions, and bioreactors therefor” (priority 2018, dated 2020)
Where “and” joins values, the source holds several entries; their conditions need not be identical. Equal values may be shown once. Read-outs that look alike come from different tables or passages of the source.

Legend:
[1] = tested on: Geobacter sulfurreducens PCA; experiment: Bioreactor Hg^0 production and growth of Geobacter sulfurreducens PCA supplied with Hg^II; assay type: cell-based; details: for Cumulative Hg(0) production / Final O.D. 600 nm: live cells, 28 C, Hg 250 pM
Text: Geobacter sulfurreducens PCA cells were revived from cryostock and grown in defined medium (herein referred to as GSMM) according to previous work (Schaefer, J. K.; Morel, F. M. M., High methylation rates of mercury bound to cysteine by Geobacter sulfurreducens. Nature Geoscience 2009, 2, (2), 123-126) with the following modification: resazurin, the color indicator used to monitor anoxia, was removed to avoid issues with abiotic Hg reduction given that resazurin is a reducing agent. Cells were grown chemotrophically in the dark at 28° C. Cells took between 10 to 12 days to re-initiate growth, as such, cultures were maintained by re-inoculating fresh GSMM every 4 days with a 10% inoculum in a final volume of 10 mL. Upon reaching late exponential phase, a 10% inoculum was used to start cultures in GSMM with a final volume of 75 mL destined for the bioreactor. Upon reaching late exponential phase a 10% inoculum was used to inoculate the bioreactor where cells were supplied with Hg^II in 560 mL of PYEΔSO4^2− or GSMM medium (see Table 1).

[2] = tested on: Clostridium acetobutylicum ATCC 824; experiment: Bioreactor Hg^0 production and growth of Clostridium acetobutylicum ATCC 824 supplied with Hg^II; assay type: cell-based; details: chemotrophy
Description: For Clostridium acetobutylicum ATCC 824, new cultures were started for every bioreactor experiment. Cells were revived in DSMZ medium 104b (herein referred to as PYX). Cells were grown in the dark at 37° C. until reaching early stationary phase after which point they were rotated as a 1% inoculum in a final volume of 10 mL into fresh PYX. Cells were grown to late exponential phase, and re-inoculated as a 1% inoculum in a final volume of 75 mL of PYX in cultures destined for the bioreactor. Experiments were performed in PYE where all SO4^2− salts were substituted with chloride salts (PYEΔSO4^2−) to avoid competition between Hg^II reduction and SO4^2− reduction. Cells were also supplied with Hg^II in DSMZ medium 104b to account for the effect of suboptimal growth medium (see Table 1 and Table 3). […] The initial volume of medium in the bioreactor was corrected to ensure that identical volumes were maintained throughout all experiments.

[3] = tested on: Heliobacterium modesticaldum Ice1; experiment: microbe, parasite or virus in culture
Description: The following strains were used in these studies: Heliobacterium modesticaldum Ice1, Clostridium acetobutylicum ATCC 824, Geobacter sulfurreducens PCA and Escherichia coli K-12. For phototrophic growth of H. modesticaldum, cells were supplied with constant illumination at 80 μmolphoton·m^−2·s^−1 at 50° C. whereas chemotrophic cells were grown at the same temperature in the dark in line with previous work.^32 C. acetobutylicum and E. coli were grown at 37° C. whereas G. sulfurreducens was grown at 28° C., all chemotrophically in the dark.
[…] Hg growth assays were carried out under the same phototrophic and chemotrophic conditions mentioned above.
Stock solutions used in cell cultures were all prepared following anaerobic techniques. […] For DMSO controls, the DMSO solution was bubbled with N2 prior to being added to the bioreactor; final concentration of DMSO in the reactor was 2.8 mM. Sodium nitrite stocks were prepared to a final concentration of 10 mM in ultra pure miliQ, filter-sterilized, sparged with N2 and stored at 4° C. in the dark; final concentration of NO2^− in the reactor was 10 μM. For experiments where HCO3^− was supplied, a stock solution of 1 M was prepared by dissolving NaHCO3 in ultra pure MiliQ and autoclaving for 30 minutes at 121° C. under 80% N2/20% CO2 atmosphere prior to use. Fumarate stock solutions were prepared at a final concentration of 40 mM in ultra pure miliQ, filter sterilized (0.2 μm pore size), bubbled with N2, sealed and crimped shut in sterile serum bottles prior to use. All equipment used in the anaerobic glove box was conditioned for at least 48 hours prior to use.
For Heliobacterium modesticaldum Ice1, new cultures were started from a cryostock for every bioreactor experiment. Cells were revived in DSMZ medium 655 (herein referred to as PYE) previously used to isolate H. modesticaldum (Kimble, L. K.; Mandelco, L.; Woese, C. R.; Madigan, M. T., Heliobacterium modesticaldum, sp. nov., a thermophilic heliobacterium of hot springs and volcanic soils. Archives of Microbiology 1995, 163, (4), 259-267). Cultures started from cryostock were grown phototrophically in PYE with an incandescent light source and constant illumination of 80 μmol photon m^−2s^−1 at 50° C. in line with previous work (Kimble, above) until reaching early stationary phase. Afterwards, a 10% inoculum was used to re-inoculate 10 mL of fresh PYE and cells were grown phototrophically (with the same light intensity) or chemotrophically (in the dark) at 50° C. These cultures were used to establish finely resolved growth curves and Hg growth assays (see FIGS. 1 and 2).
For experiments testing the effect of carbon source on Hg^0 production some modifications to the initial PYE medium growth protocol were made. Phototrophic H. modesticaldum cells were grown with pyruvate, acetate, acetate+HCO3^− and/or yeast extract alone as a carbon source. Cells were grown until late exponential phase before being subsampled to supply a 10% inoculum for cultures with a final volume 75 mL destined for the bioreactor and grown under the same conditions (see Table 1). […] Upon reaching late exponential phase, cells were inoculated into the bioreactor as a 10% inoculum in a final volume of 560 mL of media with the desired carbon source treatment.
Please refer to the methods section of Gregoire and Poulain (2016)^21 (which is herein incorporated by reference in its entirety) for a schematic of the bioreactor setup employed and the Hg^0 sampling methodology. Note that phototrophic bioreactor experiments were carried out using a 200 W incandescent clear light bulb at a constant illumination at 20 μmolphoton·m^−2·s^−1.

[4] = tested on: Heliobacterium modesticaldum Ice1; experiment: Hg growth assays with Heliobacterium modesticaldum Ice1; assay type: cell-based; details: 500 nM HgCl2 supplied as two doses of 250 nM 24 hours apart, phototrophic and chemotrophic cells in PYE
Description: One-way ANOVAs were performed for phototrophic and chemotrophic Hg exposure assays using R statistical software (R Core Team R: A Language and Environment for Statistical Computing, R Foundation for Statistical Computing: 2014). In the event of detecting a significant difference, assumptions of constant variance and normality were verified with the Brusch-Pagan test and the Shapiro-Wilks test, respectively, with the significance thresholds set to p=0.05 for each test. Significant differences were then identified using the Tukey HSD test. The sample size employed for growth assays was n=3 per treatment. All assumptions were passed for significant differences and these values are reported in the Brief Description of the Drawings (see FIG. 4). A non-linear regression model was fit to the cumulative Hg^0 production data as a function of pyruvate concentration using Sigmaplot software. In this instance, a natural logarithmic function was fit to a data set of n=8. Given the significant fit, assumptions of constant variance and normality were verified with the Sigmaplot software with the significant threshold set to p=0.05 for each test.

[5] = chemotrophy, pyruvate 20 mM + YE 4 g L-1 (PYEΔSO4^2-), NTZ 10 μM + DMSO 2.8 mM
[6] = live cells, 37 C, pyruvate 20 mM + YE 4 g L-1 (PYEΔSO4^2-), NTZ 10 μM + DMSO 2.8 mM, Hg 250 pM
[7] = chemotrophy, pyruvate 20 mM + YE 4 g L-1, fumarate 40 mM
[8] = live cells, phototrophy, 50 C, acetate 30 mM + YE 4 g L-1, HCO3- 10 mM, Hg 250 pM

## CC(=O)Oc1ccccc1C(=O)Nc1ncc([N+](=O)[O-])s1 [NTZ, nitazoxanide]
[1]; chemotrophy, NTZ 10 μM vs DMSO control
  Decrease of Hg^0 production in the presence of NTZ: 62%
[1]; [5]
  Cumulative Hg(0) production: 3.19 pmol
  Final O.D. 600 nm: 0.041
[2]; NTZ 10 μM vs DMSO control
  Decrease of Hg^0 production in the presence of NTZ: 98%
[2]; [6]
  Cumulative Hg(0) production: 1.20 pmol
  Final O.D. 600 nm: 0.146
[3]; Heliomicrobium modesticaldum, ICE1, read-out: Inhibition (decrease) of chemotrophic Hg^0 production compared to controls
  inhibition at 10 µM: 88%
[3]; live cells, chemotrophy (dark), 50 C, pyruvate 20 mM + YE 4 g L-1, NTZ 10 μM + DMSO 2.8 mM, Hg 250 pM
  Final O.D. 600 nm: 0.065 and 0.057
[3]; phototrophic cells, NTZ 10 μM
  Cell growth: did not grow
  Lag: peak of Hg^0 production occurring later than previously observed: 11 h

## O=C(O)/C=C/C(=O)O [Fumarate]
[1]; in the presence of fumarate
  Cell growth: able to grow
[1]; chemotrophy, acetate 10 mM (optimal growth medium), fumarate 40 mM
  Cumulative Hg(0) production: 19.81 pmol and 21.48 pmol
[1]; [7]
  Cumulative Hg(0) production: 6.65 pmol
  Final O.D. 600 nm: 0.185
[1]; with vs without fumarate as terminal electron acceptor, pyruvate + YE
  Decrease of Hg^0 production in the presence of fumarate: 50%

## O=C([O-])O.[Na+] [HCO3—, NaHCO3]
[3]; [8]
  Cumulative Hg(0) production: 43.31 pmol and 42.50 pmol
  Final O.D. 600 nm: 0.02 and 0.039

## [Cl][Hg][Cl] [Hg^II, HgCl2]
[3]; 2 nM Hg, phototrophically grown cells, 48 hours
  Cell health at increased mercury concentration: unaffected
[4]
  Physiological advantage / growth (rate, yield) with sublethal Hg: No physiological advantage was observed except for a small increase in the yield of phototrophically grown cells

## O=N[O-].[Na+] [NO2, Sodium nitrite]
[3]
  Cumulative Hg(0) production: 53.36 ± 0.13 pmol and 53.47 pmol and 53.66 pmol
  Final O.D. 600 nm: 0.034 and 0.023
  Increase in the amount of Hg^0 produced: 30%
